From patent US10570184B2, “GLP-1/glucagon receptor co-agonists for medical use” (Novo Nordisk A/S, priority 2014, dated 2020) come the findings set out here.

One series addresses T1, human GLP-1 receptor (Homo sapiens, UniProt P43220).
T1 construct: expressed in transfected cells; host or cells: membranes of BHK cells (parent BHKTS13), clone FCW467-12A
Put plainly: Assay (I)(a) GLP-1 receptor activation, CRE luciferase reporter gene assay in BHK cells. The class given is cell-based. Conditions: without presence of serum albumin; read-out: GLP-1R EC50 (pM) [Assay (I)(a)]. In outline:
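Stable BHK clone expressing human GLP-1 receptor with CRE-driven firefly luciferase, 5×10EE3 cells/well in medium with 2% ovalbumin and 0.2% Pluronic F-68. Compounds at 1×10EE-13 to 1×10EE-6 M final, 3 h at 37° C.; luminescence read, EC50 (pM) from four-parameter fit.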
(In general: A reporter such as luciferase makes a cellular process visible.)

The nature of series [1]: Assay (III) ThT fibrillation assay for physical stability. Type of series: physicochemical. Conditions: 250 μM in 10 mM HEPES buffer, 37° C., shaking 960 rpm. In short, it runs like this: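 Glucagon derivative at 250 μM in 10 mM HEPES pH 7.5 with 1 μM ThT was incubated at 37 °C under 960 rpm orbital shaking. Fluorescence (ex 444/em 485 nm) was read every 20 min and fitted for lag time (t0−2τ) and kapp (1/τ). Recovery was soluble peptide after centrifugation/filtration, by RP-HPLC, as percent of initial.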

The structures appear in SMILES notation. Starred links: 1 amine or outer side, 2 acyl side, 3 side chain; linkers in the order of their positions; H or OH if unused. Non-standard residues stand in square brackets, D forms with d. Residues, ends and D or L forms follow the SMILES beside them. Groups on a side chain read outwards from the residue. *: point of attachment. C18 diacid = O=C(O)CCCCCCCCCCCCCCCCC(=O)*; γGlu = O=C(O)[C@H](CCC(=O)[*:2])N[*:1]; Ac4c = NC1(C(=O)O)CCC1; AEEA = NCCOCCOCC(=O)O

T1 sequence (P43220 24-463): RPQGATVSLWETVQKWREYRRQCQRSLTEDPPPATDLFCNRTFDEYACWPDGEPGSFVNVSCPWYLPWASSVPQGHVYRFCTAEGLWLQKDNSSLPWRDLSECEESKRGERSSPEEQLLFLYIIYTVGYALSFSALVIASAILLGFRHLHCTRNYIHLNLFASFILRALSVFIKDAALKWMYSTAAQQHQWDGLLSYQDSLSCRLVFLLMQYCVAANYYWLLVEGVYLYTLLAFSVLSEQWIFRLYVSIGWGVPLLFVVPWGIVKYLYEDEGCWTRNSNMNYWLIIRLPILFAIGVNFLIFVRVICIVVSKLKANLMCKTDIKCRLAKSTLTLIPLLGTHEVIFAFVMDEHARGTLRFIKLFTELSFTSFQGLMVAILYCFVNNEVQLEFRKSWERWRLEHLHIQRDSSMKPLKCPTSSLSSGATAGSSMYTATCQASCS

What is called EC50 is the concentration at which the effect is half-maximal. For the compound `CC[C@H](C)[C@H](NC(=O)[C@H](CC(C)C)NC(=O)[C@H](Cc1c[nH]c2ccccc12)NC(=O)[C@H](CCC(N)=O)NC(=O)[C@@H](NC(=O)[C@H](Cc1ccccc1)NC(=O)[C@H](CCC(=O)O)NC(=O)[C@H](CCCNC(=N)N)NC(=O)[C@H](C)NC(=O)[C@H](CCCNC(=N)N)NC(=O)[C@H](CCCNC(=N)N)NC(=O)[C@H](CO)NC(=O)[C@H](CCC(=O)O)NC(=O)[C@H](CC(C)C)NC(=O)[C@H](Cc1ccc(O)cc1)NC(=O)[C@H](CCCCN)NC(=O)[C@H](CO)NC(=O)[C@H](CC(C)C)NC(=O)[C@H](CC(=O)O)NC(=O)[C@H](CO)NC(=O)[C@@H](NC(=O)[C@H](Cc1ccccc1)NC(=O)[C@@H](NC(=O)CNC(=O)[C@H](CCC(N)=O)NC(=O)C1(NC(=O)[C@@H](N)Cc2c[nH]cn2)CCC1)[C@@H](C)O)[C@@H](C)O)C(C)C)C(=O)N[C@@H](CCCCNC(=O)CNC(=O)[C@H](CO)NC(=O)[C@H](CCC(=O)O)NC(=O)CNC(=O)[C@H](CO)NC(=O)CC[C@H](NC(=O)CC[C@H](NC(=O)CCCCCCCCCCCCCCCCC(=O)O)C(=O)O)C(=O)O)C(=O)N[C@H](C(N)=O)[C@@H](C)O` [Chem. 16, N^ε28-[2-[[(2S)-2-[[(2S)-4-carboxy-2-[[2-[[(2S)-2-[[(4S)-4-carboxy-4-[[(4S)-4-carboxy-4-(17-carboxyheptadecanoylamino)butanoyl]amino]butanoyl]amino]-3-hydroxypropanoyl]amino]acetyl]amino]butanoyl]amino]-3-hydroxypropanoyl]amino]acetyl]-[Acb2,Leu10,Glu15,Arg20,Glu21,Ile27,Lys28]-Glucagon amide] (HELM PEPTIDE1{H.[O=C(C1(N[*:1])CCC1)[*:2]].Q.G.T.F.T.S.D.L.S.K.Y.L.E.S.R.R.A.R.E.F.V.Q.W.L.I.K.T.[am]}|PEPTIDE2{[O=C(O)CCCCCCCCCCCCCCCCC(=O)[*:2]].[gGlu].[gGlu].S.G.E.S.G}$PEPTIDE1,PEPTIDE2,28:R3-8:R2$$$V2.0), at human GLP-1 receptor, the EC50 was 5 pM. The “ThT Assay Lag time (h) [Assay (III), pH 7.5]” value in series [1] is reported as 16.0 h.
For `CC[C@H](C)[C@H](NC(=O)[C@H](CC(=O)O)NC(=O)[C@H](CO)NC(=O)[C@@H](NC(=O)[C@H](Cc1ccccc1)NC(=O)[C@@H](NC(=O)CNC(=O)[C@H](CCC(N)=O)NC(=O)C1(NC(=O)[C@@H](N)Cc2c[nH]cn2)CCC1)[C@@H](C)O)[C@@H](C)O)C(=O)N[C@@H](CO)C(=O)N[C@@H](CCCCN)C(=O)N[C@@H](Cc1ccc(O)cc1)C(=O)N[C@@H](CC(C)C)C(=O)N[C@@H](CCC(=O)O)C(=O)N[C@@H](CO)C(=O)N[C@@H](CCCNC(=N)N)C(=O)N[C@@H](CCCNC(=N)N)C(=O)N[C@@H](C)C(=O)N[C@@H](CCCNC(=N)N)C(=O)N[C@@H](CCC(=O)O)C(=O)N[C@@H](Cc1ccccc1)C(=O)N[C@H](C(=O)N[C@@H](CCC(N)=O)C(=O)N[C@@H](Cc1c[nH]c2ccccc12)C(=O)N[C@@H](CC(C)C)C(=O)N[C@H](C(=O)N[C@@H](CCCCNC(=O)CC[C@H](NC(=O)CC[C@H](NC(=O)COCCOCCNC(=O)COCCOCCNC(=O)CC[C@H](NC(=O)CC[C@H](NC(=O)CCCCCCCCCCCCCCCCC(=O)O)C(=O)O)C(=O)O)C(=O)O)C(=O)O)C(=O)N[C@H](C(N)=O)[C@@H](C)O)[C@@H](C)CC)C(C)C` [Chem. 26, N^ε28-[(4S)-4-carboxy-4-[[(4S)-4-carboxy-4-[[2-[2-[2-[[2-[2-[2-[[(4S)-4-carboxy-4-[[(4S)-4-carboxy-4-(17-carboxyheptadecanoylamino)butanoyl]amino]butanoyl]amino]ethoxy]ethoxy]acetyl]amino]ethoxy]ethoxy]acetyl]amino]butanoyl]amino]butanoyl]-[Acb2,Ile10,Glu15,Arg20,Glu21,Ile27,Lys28]-Glucagon amide] (H-H[Ac4c]QGTFTSDISKYLESRRAREFVQWLIK([γGlu-γGlu-AEEA-AEEA-γGlu-γGlu-C18 diacid])T-NH2; N-terminus assumed), in that order: 2 pM and 45.0 h.
Turning to `CC[C@H](C)[C@H](NC(=O)[C@H](CC(C)C)NC(=O)[C@H](Cc1c[nH]c2ccccc12)NC(=O)[C@H](CCC(N)=O)NC(=O)[C@@H](NC(=O)[C@H](Cc1ccccc1)NC(=O)[C@H](CCC(=O)O)NC(=O)[C@H](CCCNC(=N)N)NC(=O)[C@H](C)NC(=O)[C@H](CCCNC(=N)N)NC(=O)[C@H](CCCNC(=N)N)NC(=O)[C@H](CO)NC(=O)[C@H](CCC(=O)O)NC(=O)[C@H](CC(C)C)NC(=O)[C@H](Cc1ccc(O)cc1)NC(=O)[C@H](CCCNC(=N)N)NC(=O)[C@H](CO)NC(=O)[C@H](CC(C)C)NC(=O)[C@H](CC(=O)O)NC(=O)[C@H](CO)NC(=O)[C@@H](NC(=O)[C@H](Cc1ccccc1)NC(=O)[C@@H](NC(=O)CNC(=O)[C@H](CCC(N)=O)NC(=O)C1(NC(=O)[C@@H](N)Cc2c[nH]cn2)CCC1)[C@@H](C)O)[C@@H](C)O)C(C)C)C(=O)N[C@@H](CCCCNC(=O)CC[C@H](NC(=O)CC[C@H](NC(=O)COCCOCCNC(=O)COCCOCCNC(=O)CC[C@H](NC(=O)CC[C@H](NC(=O)CCCCCCCCCCCCCCCCC(=O)O)C(=O)O)C(=O)O)C(=O)O)C(=O)O)C(=O)N[C@H](C(N)=O)[C@@H](C)O` [Chem. 17, N^ε28-[(4S)-4-carboxy-4-[[(4S)-4-carboxy-4-[[2-[2 [2-[[2-[2-[2-[[(4S)-4-carboxy-4-[[(4S)-4-carboxy-4-(17-carboxyheptadecanoylamino)butanoyl]amino]butanoyl]amino]ethoxy]ethoxy]acetyl]amino]ethoxy]ethoxy]acetyl]amino]butanoyl]amino]butanoyl]-[Acb2,Leu10,Arg12,Glu15,Arg20,Glu21,Ile27,Lys28]-Glucagon amide] (H-H[Ac4c]QGTFTSDLSRYLESRRAREFVQWLIK([γGlu-γGlu-AEEA-AEEA-γGlu-γGlu-C18 diacid])T-NH2), at human GLP-1 receptor, the EC50 came to 4 pM. Moreover, in series [1], the “ThT Assay Lag time (h) [Assay (III), pH 7.5]” value came out at 12.3 h.
